Laboratory results reported in US11464770B2, “Anticancer pharmaceutical composition” (NATIONAL CANCER CENTER, priority 2016, dated 2022).
Like-named read-outs stand apart in the source and are kept apart here.

What was measured:
[1] = system: blood cancer cell lines (e.g. HL-60, Jurkat, Raji, Ramos, Daudi, MOLT-4); assay: Cell based assay, cell viability (CellTiter-Glo), blood cancer cell lines; settings: Homo sapiens
Summary of the method: (§1)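 Following a 24 h pre-culture in plates, cells receive test compound (final 0 to 2 μM) for 72 hours. Luminescent quantitation of cellular ATP gives viability.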

[2] = system: bladder cancer cell lines; assay: Cell based assay, cell viability (CellTiter-Glo), bladder cancer cell lines; settings: 72 hours treatment, 0 to 2 μM, CellTiter-Glo
Summary of the method: as §1

[3] = MV4-11, blood cancer cell line MV-4-11, 72 hours, read-out: IC50, MV-4-11
[4] = blood cancer cell line Daudi, 72 hours, read-out: IC50, Daudi
[5] = blood cancer cell line HL-60, 72 hours, read-out: IC50, HL-60
[6] = blood cancer cell line Jurkat, 72 hours, read-out: IC50, Jurkat
[7] = blood cancer cell line MOLT-4, 72 hours, read-out: IC50, MOLT-4
[8] = blood cancer cell line Raji, 72 hours, read-out: IC50, Raji
[9] = blood cancer cell line Ramos (RA 1), 72 hours, read-out: IC50, Ramos (RA 1)
[10] = blood cancer cell line U-937, 72 hours, read-out: IC50, U-937
[11] = 253J cells, read-out: IC50, bladder cancer cell line 253J
[12] = 5637 cells, read-out: IC50, bladder cancer cell line 5637
[13] = Homo sapiens, T-24, T24 cells, read-out: IC50, bladder cancer cell line T24
[14] = Homo sapiens, UMUC3, UM-UC-3 cells, read-out: IC50, bladder cancer cell line UM-UC-3
[15] = Homo sapiens, J82 cells, read-out: IC50, bladder cancer cell line J82
[16] = Homo sapiens, KU-19-19 cells, read-out: IC50, bladder cancer cell line KU-19-19
[17] = MBT-2 cells, read-out: IC50, bladder cancer cell line MBT-2

Row | Compound | IC50 [1, 3] [nM] | IC50 [1, 4] [nM] | IC50 [1, 5] [nM] | IC50 [1, 6] [nM] | IC50 [1, 7] [nM] | IC50 [1, 8] [nM] | IC50 [1, 9] [nM] | IC50 [1, 10] [nM] | IC50 [2, 11] [nM] | IC50 [2, 12] [nM] | IC50 [2, 13] [nM] | IC50 [2, 14] [nM] | IC50 [2, 15] [nM] | IC50 [2, 16] [nM] | IC50 [2, 17] [nM]
1 | CC(=O)c1c([S+](C)[O-])[nH]c2c(Cl)ccc(Cl)c2c1=O (stereo not shown) [Compound 6, 3-acetyl-5,8-dichloro-2-(methylsulfinyl)quinolin-4(1H)-one] | 1260 | > 2000 | 1650 | > 2000 | 1690 | > 2000 | > 2000 | > 2000 | 1220 | 1690 | 1420 | 1460 | > 2000 | > 2000 | 1440
2 | CC(=O)c1c(SCc2ccc(F)c(Cl)c2)[nH]c2c(Br)ccc(Cl)c2c1=O [Compound 30, 3-acetyl-8-bromo-5-chloro-2-((3-chloro-4-fluorobenzyl)thio)quinolin-4(1H)-one] | > 2000 | > 2000 | > 2000 | > 2000 | > 2000 | > 2000 | > 2000 | > 2000 | > 2000 | > 2000 | > 2000 | > 2000 | > 2000 | > 2000 | > 2000
3 | CC(=O)c1c([S+](C)[O-])n(C(=O)c2ccc(Br)cc2)c2c(Br)ccc(Cl)c2c1=O (stereo not shown) [Compound 9, 3-acetyl-8-bromo-1-(4-bromobenzoyl)-5-chloro-2-(methylsulfinyl)quinolin-4(1H)-one] | 1090 | 1990 | 1200 | 1050 | 1250 | 1140 | 1550 | 1060 | 1100 | 1630 | 1160 | 1180 | > 2000 | 1970 | 1200
4 | CC(=O)c1c(Sc2ccc(Br)cc2)[nH]c2c(Br)ccc(Cl)c2c1=O [Compound 16, 3-acetyl-8-bromo-2-((4-bromophenyl)thio)-5-chloroquinolin-4(1H)-one] | > 2000 | > 2000 | > 2000 | > 2000 | > 2000 | > 2000 | > 2000 | > 2000 | > 2000 | > 2000 | > 2000 | > 2000 | > 2000 | > 2000 | > 2000
5 | CC(=O)c1c([S+]([O-])C(C)c2ccccc2)[nH]c2c(Br)ccc(Cl)c2c1=O (stereo not shown) [Compound 26, 3-acetyl-8-bromo-5-chloro-2-((1-phenylethyl)sulfinyl)quinolin-4(1H)-one] | > 2000 | > 2000 | > 2000 | 1790 | 1740 | > 2000 | > 2000 | > 2000 | > 2000 | 1600 | > 2000 | – | > 2000 | – | –
6 | CC(=O)c1c([S+]([O-])c2ccccc2)[nH]c2c(Br)ccc(Cl)c2c1=O (stereo not shown) [Compound 13, 3-acetyl-8-bromo-5-chloro-2-(phenylsulfinyl)quinolin-4(1H)-one] | > 2000 | > 2000 | > 2000 | > 2000 | > 2000 | > 2000 | > 2000 | > 2000 | > 2000 | > 2000 | > 2000 | – | > 2000 | – | –
7 | COc1ccccc1Sc1[nH]c2c(Br)ccc(Cl)c2c(=O)c1C(C)=O [Compound 14, 3-acetyl-8-bromo-5-chloro-2-((2-methoxyphenyl)thio)quinolin-4(1H)-one] | > 2000 | > 2000 | > 2000 | > 2000 | > 2000 | > 2000 | > 2000 | > 2000 | > 2000 | > 2000 | > 2000 | > 2000 | > 2000 | > 2000 | > 2000
8 | CC(=O)c1c(SCc2cccc(F)c2)[nH]c2c(Br)ccc(Cl)c2c1=O [Compound 49, 3-acetyl-8-bromo-5-chloro-2-((3-fluorobenzyl)thio)quinolin-4(1H)-one] | > 2000 | > 2000 | > 2000 | > 2000 | > 2000 | > 2000 | > 2000 | > 2000 | > 2000 | > 2000 | > 2000 | > 2000 | > 2000 | > 2000 | > 2000
9 | CC(=O)c1c([S+]([O-])Cc2ccc(Cl)cc2)[nH]c2c(Br)ccc(Cl)c2c1=O (stereo not shown) [Compound 11, 3-acetyl-8-bromo-5-chloro-2-((4-chlorobenzyl)sulfinyl)quinolin-4(1H)-one] | > 2000 | > 2000 | > 2000 | > 2000 | > 2000 | > 2000 | > 2000 | > 2000 | – | > 2000 | 1830 | – | > 2000 | – | –
10 | CSc1c(C(C)=O)c(=O)c2c(Cl)ccc(Br)c2n1S(C)(=O)=O [Compound 35, 3-acetyl-8-bromo-5-chloro-1-(methylsulfonyl)-2-(methylthio)quinolin-4(1H)-one] | > 2000 | > 2000 | > 2000 | > 2000 | > 2000 | > 2000 | > 2000 | > 2000 | > 2000 | > 2000 | > 2000 | > 2000 | > 2000 | > 2000 | > 2000
11 | CC(=O)c1c(SCc2cc(Cl)ccc2Cl)[nH]c2c(Br)ccc(Cl)c2c1=O [Compound 43, 3-acetyl-8-bromo-5-chloro-2-((2,5-dichlorobenzyl)thio)quinolin-4(1H)-one] | > 2000 | > 2000 | > 2000 | > 2000 | > 2000 | > 2000 | > 2000 | > 2000 | > 2000 | > 2000 | > 2000 | > 2000 | > 2000 | > 2000 | > 2000
12 | CC(=O)c1c([S+]([O-])Cc2ccccc2C#N)[nH]c2c(Br)ccc(Cl)c2c1=O (stereo not shown) [Compound 58, 2-(((3-acetyl-8-bromo-5-chloro-4-oxo-1,4-dihydroquinolin-2-yl)sulfinyl)methyl)benzonitrile] | 970 | 1980 | 870 | 990 | 1240 | 940 | 1250 | 730 | 920 | > 2000 | 820 | – | > 2000 | – | –

The next lines start with the values.

Row | IC50 [1, 3] [nM] | IC50 [1, 4] [nM] | IC50 [1, 5] [nM] | IC50 [1, 6] [nM] | IC50 [1, 7] [nM] | IC50 [1, 8] [nM] | IC50 [1, 9] [nM] | IC50 [1, 10] [nM] | IC50 [2, 11] [nM] | IC50 [2, 12] [nM] | IC50 [2, 13] [nM] | IC50 [2, 14] [nM] | IC50 [2, 15] [nM] | IC50 [2, 16] [nM] | IC50 [2, 17] [nM] | Compound
13 | > 2000 | > 2000 | > 2000 | > 2000 | > 2000 | > 2000 | > 2000 | > 2000 | > 2000 | > 2000 | > 2000 | – | > 2000 | – | – | CC(=O)c1c([S+]([O-])Cc2ccc(S(F)(F)(F)(F)F)cc2)[nH]c2c(F)ccc(F)c2c1=O (stereo not shown) [Compound 80, 3-acetyl-5,8-difluoro-2-((4-(pentafluoro--sulfanyl)benzyl)sulfinyl)quinolin-4(1H)-one]
14 | > 2000 | > 2000 | > 2000 | > 2000 | > 2000 | > 2000 | > 2000 | > 2000 | > 2000 | > 2000 | > 2000 | – | > 2000 | – | – | CC(C)C(=O)c1c([S+]([O-])Cc2ccc(SC(F)(F)F)cc2)[nH]c2c(F)ccc(F)c2c1=O (stereo not shown) [Compound 85, 5,8-difluoro-3-isobutyryl-2-((4-((trifluoromethyl)thio)benzyl)sulfinyl)quinolin-4(1H)-one]
15 | > 2000 | > 2000 | > 2000 | > 2000 | > 2000 | > 2000 | > 2000 | > 2000 | > 2000 | > 2000 | > 2000 | > 2000 | > 2000 | > 2000 | > 2000 | CC(=O)c1c([S+]([O-])CN2C(=O)c3ccccc3C2=O)[nH]c2c(Cl)ccc(Cl)c2c1=O (stereo not shown) [Compound 90, 2-(((3-acetyl-5,8-dichloro-4-oxo-1,4-dihydroquinolin-2-yl)sulfinyl)methyl)isoindoline-1,3-dione]
16 | 950 | 1000 | > 2000 | 440 | 730 | 1250 | 840 | 1360 | 800 | 1620 | 850 | – | 1500 | – | – | CC(=O)c1c([S+]([O-])Cc2ccc(-n3cccn3)nc2)[nH]c2c(Br)ccc(Cl)c2c1=O (stereo not shown) [Compound 99, 2-(((6-(1H-pyrazol-1-yl)pyridin-3-yl)methyl)sulfinyl)-3-acetyl-8-bromo-5-chloroquinolin-4(1H)-one]
17 | > 2000 | > 2000 | > 2000 | > 2000 | > 2000 | > 2000 | > 2000 | > 2000 | > 2000 | > 2000 | > 2000 | – | > 2000 | – | – | CC(=O)c1c([S+]([O-])Cc2ccc(SC(F)(F)F)cc2)[nH]c2c(Cl)ccc(Cl)c2c1=O (stereo not shown) [Compound 79, 3-acetyl-5,8-dichloro-2-((4-((trifluoromethyl)thio)benzyl)sulfinyl)quinolin-4(1H)-one]
18 | 950 | 1150 | > 2000 | > 2000 | 930 | 1440 | 1060 | > 2000 | – | > 2000 | 1030 | – | > 2000 | – | – | CC(=O)c1c([S+]([O-])Cc2ccc(Cl)nc2)[nH]c2c(Br)ccc(Cl)c2c1=O (stereo not shown) [Compound 104, 3-acetyl-8-bromo-5-chloro-2-(((6-chloropyridin-3-yl)methyl)sulfinyl)quinolin-4(1H)-one]
19 | > 2000 | > 2000 | > 2000 | > 2000 | > 2000 | > 2000 | > 2000 | > 2000 | > 2000 | > 2000 | > 2000 | – | > 2000 | – | – | COc1cccc2[nH]c([S+]([O-])Cc3ccc(S(F)(F)(F)(F)F)cc3)c(C(C)=O)c(=O)c12 (stereo not shown) [Compound 93, 3-acetyl-5-methoxy-2-((4-(pentafluoro--sulfanyl)benzyl)sulfinyl)quinolin-4(1H)-one]
20 | > 2000 | > 2000 | > 2000 | > 2000 | > 2000 | > 2000 | > 2000 | > 2000 | > 2000 | > 2000 | > 2000 | > 2000 | > 2000 | > 2000 | > 2000 | CC(=O)c1c(S)[nH]c2c(Br)ccc(Cl)c2c1=O [Compound 62, 3-acetyl-8-bromo-5-chloro-2-mercaptoquinolin-4(1H)-one]
